Measured values from paper PMC6928743, “3’-O-Methylorobol Inhibits the Voltage-Gated Sodium Channel Nav1.7 with Anti-Itch Efficacy in A Histamine-Dependent Itch Mouse Model” (International Journal of Molecular Sciences, 2019).

Experiments:
Assay type in all cases: cell-based
Nav1.6 = biological target: T1, Nav1.6 (Homo sapiens, UniProt Q9UQD0); assay: whole-cell voltage-clamp in CHO cells stably expressing hNav1.[…], single concentration […]
T1 construct: gene SCN8A

Nav1.7 = biological target: T2, Nav1.7 (Homo sapiens, UniProt Q15858); assay: whole-cell voltage-clamp in CHO cells stably expressing hNav1.[…]
T2 construct: gene SCN9A
T2 sequence (Q15858 whole entry): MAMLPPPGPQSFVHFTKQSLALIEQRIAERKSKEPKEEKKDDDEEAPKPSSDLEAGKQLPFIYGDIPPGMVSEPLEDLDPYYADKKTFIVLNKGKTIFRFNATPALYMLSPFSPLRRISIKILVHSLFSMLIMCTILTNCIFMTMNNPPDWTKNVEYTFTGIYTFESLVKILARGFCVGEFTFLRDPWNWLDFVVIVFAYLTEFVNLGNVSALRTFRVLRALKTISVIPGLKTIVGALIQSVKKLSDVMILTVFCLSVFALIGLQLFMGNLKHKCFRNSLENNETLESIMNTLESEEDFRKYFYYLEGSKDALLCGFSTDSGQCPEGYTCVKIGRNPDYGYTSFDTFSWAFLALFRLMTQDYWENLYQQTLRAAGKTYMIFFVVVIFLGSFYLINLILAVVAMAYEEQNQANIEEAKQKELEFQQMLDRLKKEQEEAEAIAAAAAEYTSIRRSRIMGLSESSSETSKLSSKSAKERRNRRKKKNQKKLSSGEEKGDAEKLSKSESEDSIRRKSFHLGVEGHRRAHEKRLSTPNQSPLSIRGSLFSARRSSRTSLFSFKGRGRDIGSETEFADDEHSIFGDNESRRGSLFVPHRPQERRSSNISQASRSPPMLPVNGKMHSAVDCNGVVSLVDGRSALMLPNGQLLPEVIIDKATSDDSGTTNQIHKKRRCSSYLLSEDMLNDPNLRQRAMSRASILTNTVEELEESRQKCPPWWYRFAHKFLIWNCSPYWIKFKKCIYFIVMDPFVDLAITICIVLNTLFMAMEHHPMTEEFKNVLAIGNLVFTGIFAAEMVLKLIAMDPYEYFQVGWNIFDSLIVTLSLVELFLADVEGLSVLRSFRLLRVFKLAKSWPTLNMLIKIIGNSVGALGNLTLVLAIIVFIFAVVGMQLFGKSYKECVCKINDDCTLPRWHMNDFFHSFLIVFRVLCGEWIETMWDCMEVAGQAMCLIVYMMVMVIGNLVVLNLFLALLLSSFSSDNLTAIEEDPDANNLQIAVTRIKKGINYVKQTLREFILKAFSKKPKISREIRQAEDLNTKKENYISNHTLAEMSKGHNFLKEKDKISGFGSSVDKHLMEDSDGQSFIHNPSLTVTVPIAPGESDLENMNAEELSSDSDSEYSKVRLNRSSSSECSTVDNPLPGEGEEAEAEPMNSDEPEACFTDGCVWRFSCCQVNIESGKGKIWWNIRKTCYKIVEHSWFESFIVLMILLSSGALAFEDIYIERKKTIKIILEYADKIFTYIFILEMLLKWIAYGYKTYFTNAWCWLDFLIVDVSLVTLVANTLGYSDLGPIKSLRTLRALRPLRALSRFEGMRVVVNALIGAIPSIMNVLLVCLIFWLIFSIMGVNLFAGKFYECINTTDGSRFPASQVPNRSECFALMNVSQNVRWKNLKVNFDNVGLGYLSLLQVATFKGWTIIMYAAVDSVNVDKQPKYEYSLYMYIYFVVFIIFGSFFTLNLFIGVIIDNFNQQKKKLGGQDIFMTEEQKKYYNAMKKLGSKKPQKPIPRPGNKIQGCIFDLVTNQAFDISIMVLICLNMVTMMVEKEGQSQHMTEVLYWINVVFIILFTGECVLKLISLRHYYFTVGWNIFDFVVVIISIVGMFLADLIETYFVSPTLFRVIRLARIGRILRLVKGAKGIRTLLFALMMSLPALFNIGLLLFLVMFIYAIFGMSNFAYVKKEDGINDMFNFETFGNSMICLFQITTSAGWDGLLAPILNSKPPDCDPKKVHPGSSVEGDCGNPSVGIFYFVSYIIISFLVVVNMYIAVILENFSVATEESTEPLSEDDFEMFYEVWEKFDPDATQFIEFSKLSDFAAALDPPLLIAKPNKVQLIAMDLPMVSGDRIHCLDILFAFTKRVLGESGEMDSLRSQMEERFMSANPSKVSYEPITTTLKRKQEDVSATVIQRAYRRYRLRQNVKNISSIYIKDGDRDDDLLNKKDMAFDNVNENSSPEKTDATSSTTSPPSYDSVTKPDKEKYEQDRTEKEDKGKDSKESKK

Nav1.8 = biological target: T3, Nav1.8 (Mus musculus, UniProt Q6QIY3); assay: whole-cell voltage-clamp in ND7/[…] cells transiently expressing mNav1.[…], single concentration […]
T3 construct: gene Scn10a

T1 sequence (Q9UQD0 whole entry): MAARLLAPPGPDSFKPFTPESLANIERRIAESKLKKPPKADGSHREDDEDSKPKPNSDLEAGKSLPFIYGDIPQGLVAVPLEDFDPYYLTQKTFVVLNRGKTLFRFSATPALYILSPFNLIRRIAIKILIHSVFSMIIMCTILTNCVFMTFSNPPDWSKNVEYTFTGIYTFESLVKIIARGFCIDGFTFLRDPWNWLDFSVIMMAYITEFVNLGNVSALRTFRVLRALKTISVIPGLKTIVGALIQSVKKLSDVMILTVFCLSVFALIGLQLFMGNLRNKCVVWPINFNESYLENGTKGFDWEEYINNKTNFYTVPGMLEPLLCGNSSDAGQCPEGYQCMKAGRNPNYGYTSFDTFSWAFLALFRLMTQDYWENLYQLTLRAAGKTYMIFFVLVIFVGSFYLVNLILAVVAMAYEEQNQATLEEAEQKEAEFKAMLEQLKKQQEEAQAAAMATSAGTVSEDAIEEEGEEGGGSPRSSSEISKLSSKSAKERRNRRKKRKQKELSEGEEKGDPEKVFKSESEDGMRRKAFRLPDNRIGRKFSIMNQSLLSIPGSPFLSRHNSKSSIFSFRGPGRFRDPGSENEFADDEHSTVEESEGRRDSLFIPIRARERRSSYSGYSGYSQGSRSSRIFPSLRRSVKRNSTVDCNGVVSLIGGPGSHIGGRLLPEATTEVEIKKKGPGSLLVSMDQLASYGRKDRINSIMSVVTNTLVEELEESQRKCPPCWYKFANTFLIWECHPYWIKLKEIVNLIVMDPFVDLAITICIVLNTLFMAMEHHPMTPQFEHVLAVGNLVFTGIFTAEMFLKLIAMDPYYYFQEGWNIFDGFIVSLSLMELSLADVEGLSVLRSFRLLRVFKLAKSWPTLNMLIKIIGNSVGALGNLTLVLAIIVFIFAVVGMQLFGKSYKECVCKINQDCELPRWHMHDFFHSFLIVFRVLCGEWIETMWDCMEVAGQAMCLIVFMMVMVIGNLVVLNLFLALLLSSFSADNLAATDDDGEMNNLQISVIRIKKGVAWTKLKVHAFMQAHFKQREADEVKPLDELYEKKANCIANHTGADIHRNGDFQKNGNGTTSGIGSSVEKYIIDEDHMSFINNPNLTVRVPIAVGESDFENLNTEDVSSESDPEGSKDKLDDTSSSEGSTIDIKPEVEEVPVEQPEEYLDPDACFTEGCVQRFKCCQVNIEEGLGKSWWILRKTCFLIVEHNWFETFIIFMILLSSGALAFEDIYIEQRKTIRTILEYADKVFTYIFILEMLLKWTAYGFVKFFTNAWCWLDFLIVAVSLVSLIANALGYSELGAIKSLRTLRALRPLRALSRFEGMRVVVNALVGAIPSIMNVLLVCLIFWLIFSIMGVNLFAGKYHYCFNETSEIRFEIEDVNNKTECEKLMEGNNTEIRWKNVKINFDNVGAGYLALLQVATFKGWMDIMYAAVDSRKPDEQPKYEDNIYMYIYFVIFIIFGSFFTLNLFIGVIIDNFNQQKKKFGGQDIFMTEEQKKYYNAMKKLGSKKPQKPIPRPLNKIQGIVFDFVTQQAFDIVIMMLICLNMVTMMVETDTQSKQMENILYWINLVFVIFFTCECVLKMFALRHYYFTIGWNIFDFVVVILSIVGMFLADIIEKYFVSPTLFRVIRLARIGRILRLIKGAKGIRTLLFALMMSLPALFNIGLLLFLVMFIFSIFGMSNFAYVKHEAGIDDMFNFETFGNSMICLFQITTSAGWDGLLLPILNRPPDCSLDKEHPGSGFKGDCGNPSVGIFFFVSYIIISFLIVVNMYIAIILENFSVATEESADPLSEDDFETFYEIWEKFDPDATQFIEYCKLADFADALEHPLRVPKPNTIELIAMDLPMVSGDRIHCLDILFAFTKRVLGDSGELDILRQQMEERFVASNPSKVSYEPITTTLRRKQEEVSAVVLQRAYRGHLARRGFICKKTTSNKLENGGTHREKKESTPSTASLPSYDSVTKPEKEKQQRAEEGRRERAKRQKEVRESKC

SMILES: COc1cc(-c2coc3cc(O)cc(O)c3c2=O)ccc1O [3’-O-methylorobol]
- inhibition at 10 µM (Nav1.6): 39%
- IC50 (Nav1.7): 3.46 µM
- inhibition at 10 µM (Nav1.8): 23%
